Tested on: skin redness, skin inflammation, irritation and skin aging
Assay: Materials tested for usefulness in the present invention (improving skin appearance, reducing skin redness, inflammation, irritation)
Format: in vivo, humans
Conditions: topical; related materials tested

SMILES | usefulness (activity) in the present invention
OC1CCCC1O (stereo not drawn) [1,2-cyclopentanediol] | do not work
CC1(O)CCCCC1 [1-methylcyclohexanol] | not to be useful
OCCCCC1CCCCC1 [4-cyclohexyl-1-butanol] | not to be useful
OCC1(CO)CC2C=CC1C2 (stereo not drawn) [5-norborene-2,2-dimethanol] | do not work
CC1(C)[C@H]2C[C@H]1[C@@](C)(O)[C@@H](O)C2 [(1R,2R,3S,5S-(−))-pinanediol] | do not work
C1CCCCC1 [cyclohexane] | not to be useful
C1=CCCCC1 [cyclohexene] | not to be useful
CC(=O)OC1CCCCC1 [cyclohexyl acetate] | not to be useful
O=C(O)C1CCCCC1 [cyclohexyl carboxylic acid] | not to be useful
ClC1CCCCC1 [cyclohexyl chloride] | not to be useful
CC1CCC(C(C)C)C(O)C1 (stereo not drawn) [menthol] | not to be useful

Tested on: skin
Assay: Skin irritation by the applied material
Format: in vivo, humans
Conditions: topical

SMILES | irritation (reddening) of the skin to which it is applied
CC1CCC(C(C)C)C(O)C1 (stereo not drawn) [menthol] | can irritate

— patent publication US20060045892A1, “Cosmetic compositions” (priority 2004, published 2006)
